According to ChEMBL document CHEMBL1153893, “5,6-Dihydro-1H-pyridin-2-ones as potent inhibitors of HCV NS5B polymerase” (Bioorg Med Chem Lett, 2009):
pEC50, pIC50: −log10 of the molar value.

Columns and labels:
[1] = system: Hepatitis C virus; experiment: Inhibition of HCV 1b NS5B polymerase by Microbeta scintillation counter; set-up: species or system Hepatitis C virus subtype 1b
[2] = system: Hepatitis C virus; experiment: Antiviral activity against HCV 1b infected in human Huh7/C24 after 72 hrs; type: functional, organism-based, Hepacivirus hominis; conditions: genotype 1b, Huh-7, 72 h
[3] = Metabolic stability in human liver microsomes assessed as compound remaining at 1 uM after 60 mins; type: ADME, Microsome; conditions: read-out: Stability
[4] = Metabolic stability in human liver microsomes assessed as half life; type: ADME, Microsome
[5] = Cytotoxicity against human Huh7/C24 after 72 hrs; type: cell-based, Huh-7; conditions: Huh7/C24 cells
[6] = Inhibition of HCV 1a isolate H77 NS5B polymerase by Microbeta scintillation counter; set-up: species or system Hepatitis C virus subtype 1a

SMILES | pIC50 [1] | pEC50 [2] | remaining at 1 h, 1 µM [3] | half-life [4] | CC50 at 72 h [5] | pIC50 [6]
CS(=O)(=O)Nc1ccc2c(c1)S(=O)(=O)N=C(C1=C(O)[C@H]3CCC[C@H]3N(Cc3ccc(C(F)(F)F)cc3)C1=O)N2 | 6.21 | 5.32 | 85% | > 60 min | > 33000 nM | –
CC(C)CCN1C(=O)C(C2=NS(=O)(=O)c3cc(NS(C)(=O)=O)ccc3N2)=C(O)[C@H]2CCC[C@H]21 | > 8.00 | 7.49 | – | 23 min | > 1000 nM | 7.29
CS(=O)(=O)Nc1ccc2c(c1)S(=O)(=O)N=C(C1=C(O)[C@H]3CCC[C@H]3N(CC3CC3)C1=O)N2 | 6.68 | 6.03 | 99% | > 60 min | > 33000 nM | –
CC(C)(C)CCN1C(=O)C(C2=NS(=O)(=O)c3cc(NS(C)(=O)=O)ccc3N2)=C(O)[C@H]2CCC[C@H]21 | > 8.00 | 8.05 | – | 16 min | > 1000 nM | > 7.60
CS(=O)(=O)Nc1ccc2c(c1)S(=O)(=O)N=C(C1=C(O)C3CCCC3N(CCc3ccccc3)C1=O)N2 (racemic) | 6.24 | 5.82 | – | 25 min | > 33000 nM | –
CN1C(=O)C(C2=NS(=O)(=O)c3cc(NS(C)(=O)=O)ccc3N2)=C(O)C2CCCC21 (racemic) | 5.04 | – | – | – | – | –
CCN1C(=O)C(C2=NS(=O)(=O)c3cc(NS(C)(=O)=O)ccc3N2)=C(O)C2CCCC21 (racemic) | 6.02 | 5.68 | – | – | > 33000 nM | –
CN(C)CCN1C(=O)C(C2=NS(=O)(=O)c3cc(NS(C)(=O)=O)ccc3N2)=C(O)C2CCCC21 (racemic) | 5.17 | – | 97% | > 60 min | – | –
CS(=O)(=O)Nc1ccc2c(c1)S(=O)(=O)N=C(C1=C(O)C3CCCCC3N(C3CCCCC3)C1=O)N2 (racemic) | 6.04 | 5.49 | – | – | > 33000 nM | –
CS(=O)(=O)Nc1ccc2c(c1)S(=O)(=O)N=C(C1=C(O)C3CCCC3N(CCC3CC3)C1=O)N2 (racemic) | 7.46 | 6.92 | – | 25 min | > 33000 nM | 7.29
CS(=O)(=O)Nc1ccc2c(c1)S(=O)(=O)N=C(C1=C(O)C3CCCC3N(C3CCCCC3)C1=O)N2 (racemic) | 6.14 | 5.37 | – | – | > 10000 nM | –
CS(=O)(=O)Nc1ccc2c(c1)S(=O)(=O)N=C(C1=C(O)C3CCCC3N(Cc3ccccc3)C1=O)N2 (racemic) | 7.34 | 7.00 | – | 50 min | > 33000 nM | 7.00
CS(=O)(=O)Nc1ccc2c(c1)S(=O)(=O)N=C(C1=C(O)C3CCCC3N(Cc3cccc(F)c3)C1=O)N2 (racemic) | 7.70 | 6.77 | – | 51 min | > 33000 nM | 6.89
CS(=O)(=O)Nc1ccc2c(c1)S(=O)(=O)N=C(C1=C(O)C3CCCC3N(CC3CCC3)C1=O)N2 (racemic) | 7.29 | 6.15 | – | 4 min | > 33000 nM | –
CC(C)(C)CCN1C(=O)C(C2=NS(=O)(=O)c3cc(NS(C)(=O)=O)ccc3N2)=C(O)C2CCCCCC21 (racemic) | 7.41 | 7.66 | – | 27 min | > 10000 nM | 7.14
CC(C)(C)CCN1C(=O)C(C2=NS(=O)(=O)c3cc(NS(C)(=O)=O)ccc3N2)=C(O)C2CCCCCCC21 (racemic) | 5.19 | – | – | – | – | –
CS(=O)(=O)Nc1ccc2c(c1)S(=O)(=O)N=C(C1=C(O)C3CCCC3N(c3ccccc3)C1=O)N2 (racemic) | 5.46 | – | – | – | – | –
CC(C)N1C(=O)C(C2=NS(=O)(=O)c3cc(NS(C)(=O)=O)ccc3N2)=C(O)C2CCCC21 (racemic) | 6.11 | 4.87 | – | – | > 33000 nM | –
CS(=O)(=O)Nc1ccc2c(c1)S(=O)(=O)N=C(C1=C(O)C3CCCC3N(C3CCCC3)C1=O)N2 (racemic) | 5.47 | – | – | – | – | –
